“And” between values parts separate entries of the source, which are not always exact repeats. Identical values can stand only once.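 Assay format: 96-well plates, 48-hour exposure. Abbreviation: GI50, concentration required for 50% inhibition of growth. Definition used: TGI = concentration required for complete inhibition of growth.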
Legend:
Assay in all cases: NCI anticancer screen, dose series, 48 h
[1] = test system: DMS 114 small cell lung
[2] = test system: DMS 273 small cell lung
[3] = test system: DLD-1 colon
[4] = test system: M19-MEL melanoma
[5] = test system: HS 578T breast
[6] = test system: HOP-18 NSCLC
[7] = test system: XF 498 CNS
[8] = test system: MDA-N
[9] = test system: RXF-631 renal

SMILES	TGI [1]	TGI [2] [µM]	TGI [3]	TGI [4] [µM]	GI50 [5]	TGI [5]	also measured
CCC1OCCN1C(C)C (configuration not stated)	> 100 µM	> 100	> 100 µM	> 100	–	–	–
COc1ccc(C2=CC(c3cc(OC)c(OC)c(OC)c3)n3ncnc3N2)cc1 (configuration not stated)	–	–	–	–	0.0734 µM	> 100 µM	–
CCOC(=O)CCC1(C(=O)OC)CCCC1=O (configuration not stated)	> 100 µM	> 100	> 100 µM	> 100	–	–	TGI [6]: > 100 µM; TGI [7]: > 100 µM
CC[C@@]1(OC(=O)CN)C(=O)OCc2c1cc1n(c2=O)Cc2cc3cc(N)ccc3nc2-1	–	–	–	–	1.97 µM	> 100 µM	GI50 [8]: 0.0772 µM; TGI [8]: 1.09 µM
CCCCCCCCCCCCCCCC[N+]1(CC)CCCC1	–	–	–	–	0.679 µM	3.26 µM	–
Cc1ccc(NC(=O)CCC(=O)C2CC(=O)CC/C2=N\NC(=O)c2cc3ccccc3cc2O)cc1C (configuration not stated)	51.6 µM	43.1	> 100 µM	90.7	–	–	TGI [9]: > 100 µM; TGI [6]: > 100 µM; TGI [7]: 99 µM
O=C1c2c(O)cccc2C(C(=O)CCCCC(=O)C2c3cccc(O)c3C(=O)c3c(O)cccc32)c2cccc(O)c21	1.48 µM and 1.83 µM	4.51	4.52 µM and 9.27 µM	–	–	0.951 µM	GI50 [1]: 1.01 µM; GI50 [9]: 1.36 µM; TGI [9]: 3.61 µM and 2.81 µM; TGI [8]: 3.77 µM; GI50 [3]: 1.68 µM; GI50 [6]: 0.996 µM; TGI [6]: 1.79 µM and 1.88 µM; TGI [7]: 1.18 µM
Cc1nn(-c2ccccc2)c2c1C1C(=C(c3ccc(Cl)cc3)N2)C(=O)Nc2ccccc21 (configuration not stated)	–	–	–	–	8.59 µM	> 100 µM	–
COc1cc(C(c2cc3c(cc2O)OCO3)N2CCCC2)cc(OC)c1OC (configuration not stated)	–	–	–	–	–	–	TGI [8]: 27.9 µM
O=C1C=C(Nc2cccc(Br)c2)c2ccccc2C1=O	–	–	–	–	0.259 µM	14.4 µM	–
Nc1ncnc2occ(-c3ccc(NC(=O)Nc4cc(C(F)(F)F)cc(C(F)(F)F)c4)cc3)c12	–	–	–	–	2.12 µM	8.03 µM	–
CC(=O)[CH-]C(=O)c1ccccc1.CC(=O)[CH-]C(=O)c1ccccc1.[O]=[U+2]=[O]	–	–	> 100 µM	> 100	–	–	GI50 [3]: 29.7 µM; GI50 [4]: 28.9 µM
COc1cc2oc3ccccc3c(=O)c2cc1CSc1ccccc1N	–	–	–	–	–	> 100 µM	TGI [8]: > 100 µM
N#CC1c2ccccc2-c2ccccc2N1C(=O)c1ccccc1 (configuration not stated)	–	–	–	–	1.99 µM	6.72 µM	–
Cc1ccc([P+](Cc2ccc([N+](=O)[O-])cc2)(c2ccc(C)cc2)c2ccc(C)cc2)cc1	–	–	–	–	3.46 µM	17.7 µM	–
CC1OC(=O)N(CCCC=C2SCCCS2)C1=O (configuration not stated)	> 100 µM	> 100	–	> 100	–	–	TGI [6]: > 100 µM; TGI [7]: > 100 µM
CC1(C)N=C(N)N=C(N)N1c1ccc(OCC(=O)Nc2cccc(S(=O)(=O)F)c2)c(Cl)c1	–	–	–	–	–	> 100 µM	–
C/C(=N\NS(=O)(=O)c1ccc(C)cc1)c1ccc[n+]([O-])n1	> 100 µM	> 100	> 100 µM	> 100	–	–	TGI [6]: > 100 µM; TGI [7]: > 100 µM
O=C(/C=C/N1CCN(c2cccc(C(F)(F)F)c2)CC1)c1ccc(Cl)cc1Cl	–	–	–	–	27.5 µM	63.8 µM	–
COc1ccc(C[C@H]2C[C@@H](O)[C@@H](C)C/C=C/Cc3cccc(O)c3C(=O)O2)cn1	–	–	–	–	14.4 µM	36.7 µM	–

SMILES	TGI [1]	TGI [2] [µM]	TGI [3]	TGI [4] [µM]	GI50 [5]	TGI [5]	also measured
CC(C)c1ccc(/C=C(\NC(=O)c2ccccc2)c2nc3ccccc3[nH]2)cc1	92.8 µM	> 100	> 100 µM	> 100	–	–	TGI [9]: > 100 µM; TGI [6]: > 100 µM; TGI [7]: > 100 µM
COc1ccc2c(c1O)[C@@]13C=C(O)C(=O)C=C1[C@@H](C2)N(C)CC3	–	–	–	–	–	> 100 µM	TGI [8]: > 100 µM
CC1=C(C#N)C(N)=C2C(C)=C(C#N)C(N)=C12	> 100 µM	> 100	> 100 µM	> 100	–	–	TGI [7]: > 100 µM
Cc1cc(N(CCC#N)S(=O)(=O)c2ccccc2)ccc1C=O	> 100 µM	> 100	> 100 µM	–	–	–	TGI [9]: > 100 µM; TGI [6]: > 100 µM
COc1ccc2nc3ccc(OC)cc3c(SCCCN)c2c1	–	–	–	–	5.9 µM	15.5 µM	–
CCOP(=O)(OCC)/C(C#N)=C\c1cccc2ccccc12	–	–	–	> 100	–	57.7 µM	TGI [8]: > 100 µM
COc1ccccc1C(=O)c1cnc(NC2CCN(S(C)(=O)=O)CC2)nc1N	–	–	–	–	11.4 µM	> 25 µM	–
CCOC(=O)/C=C1\Nc2ccccc2C(c2ccccc2)=NC1OC(C)=O (configuration not stated)	> 100 µM	> 100	> 100 µM	> 100	–	–	–
CCCC/C(=N\N=C(N)N)c1ccc(F)cc1	–	–	–	–	2.88 µM	8.81 µM	–
COC(=O)C(CC=O)C(=O)C(=O)Nc1cccc(C(F)(F)F)c1 (configuration not stated)	> 100 µM	–	> 100 µM	> 100	–	–	TGI [9]: > 100 µM; TGI [6]: > 100 µM; TGI [7]: > 100 µM
COc1ccc2cccc(C(=N)c3ccc(C)c4c3CCC4)c2c1	19.9 µM	21.2	–	21.5	–	–	TGI [9]: 4.37 µM; TGI [6]: 15.5 µM
COc1cc2c3c(c1OC)-c1ccccc1C(C(OC(C)=O)c1ccccc1)C3N(C)CC2 (configuration not stated)	> 100 µM	> 100	91 µM	> 100	–	–	TGI [6]: > 100 µM
COC(=O)[C@H](Cc1ccccc1)NC(=O)c1csc([C@@H](C[C@H](C(C)C)N(C)C(=O)[C@@H](NC(=O)[C@H]2CCCCN2C)C2CC2)OC(C)=O)n1	–	–	–	–	0.0245 µM	14.5 µM	–
C/C(=C(/c1ccc(O)cc1)c1ccc(OCCN2CCCC2)cc1)c1ccccc1	–	–	–	–	2.96 µM	9.9 µM	–
CCN(CC)CCC(=O)Nc1ccc(Cn2nnc3c2C(=O)c2nnn(Cc4ccc(NC(=O)CCN(CC)CC)cc4)c2C3=O)cc1	–	–	–	–	2.34 µM	8.84 µM	–
Cn1c(=O)n(-c2ccc(C(C)(C)C#N)cc2)c2c3cc(-c4cnc5ccccc5c4)ccc3ncc21	–	–	–	–	< 0.01 µM and 0.00204 µM	0.0195 µM and 0.00587 µM	–
CN1C(=O)c2cc(Cl)nc3c(NC(=O)c4cccc(Cl)c4)c(Cl)c(NC(=O)c4cccc(Cl)c4)c1c23	–	–	–	–	2.48 µM	7.16 µM	–
CC1CCC(O)C(C(O)CC2CC(=O)N(C)C(=O)C2)C1 (configuration not stated)	> 100 µM	> 100	> 100 µM	> 100	–	–	TGI [9]: > 100 µM; TGI [6]: > 100 µM; TGI [7]: > 100 µM
O=C(OCc1ccccc1CN1CCOCC1)c1ccc(Br)cc1	–	–	–	–	–	> 100 µM	–
O=C(Oc1c(I)ccccc1=O)c1ccc([N+](=O)[O-])cc1	–	–	–	–	–	68.2 µM	–

From PubChem BioAssay (NCI)
